# From US20230203126A1, “A COMPOSITION COMPRISING S-ARRESTIN PEPTIDES” (WORG PHARMACEUTICALS (HANGZHOU) CO., LTD., priority 2019, published 2023)
# “And” between values parts separate entries of the source, which are not always exact repeats. Equal entries are not always repeated. No end group written: not given here.
# Tested on: S-Ag-induced cell activation (IFNy production of LN cells and splenocytes)
# Experiment: Ex vivo tolerization experiment (DR3tg mice)
# Assay type: in vivo
# Conditions: for reduction of S-Ag-induced cell activation (IFNy) in spleens: dose escalation to 15 nmol per peptide s.c., cocktail vs single peptide, vs control group, two independent experiments (FIG. 7); for reduction of S-Ag-induced cell activation (IFNy) in lymph nodes / reduction of S-Ag-induced cell activation (IFNy) in spleen: single peptide escalating dose s.c., vs PBS; for reduction of S-Ag-induced cell activation (IFNy) in lymph nodes: 10 days after immunization (FIG. 5A, 6A); for reduction of S-Ag-induced cell activation (IFNy) in spleen: 10 days after immunization (FIG. 5B, 6B)
# Procedure: (§1) FIG. 5: 17JK alone induces tolerance towards S-Ag protein in DR3tg mice. Mice were injected subcutaneously in the flank with 0,1 µg/ml, 1 µg/ml and 10 µg/ml 17JK on days -15, -13 and -11, followed by 3 injections of 100 µg/ml on days -8, -6 and -4 (escalating dose regime). On day 0, mice were immunized subcutaneously at the base of the tail with antigen/CFA. Mice were sacrificed 10 days after immunization to measure activation of LN cells and splenocytes upon S-Ag restimulation. IFNy concentration was measured in the culture supernatant as an indication of cell activation. Data represent mean ± SEM of the concentration of IFNy for the PBS-treated mice (black lines) and 17JK-treated mice (grey lines). Two-way ANOVA was used to measure overall treatment effects on T cell activation. Dunnett’s multiple comparisons test was used and significant differences are indicated in the graphs (** p<0.01; *** p<0.001). The % inhibition of IFNy production as compared to the control group is indicated in the graphs. (A) Tolerization against S-Ag in LN. IFNy production expressed as IFNy concentration (pg/ml). (B) Tolerization against S-Ag in spleen. IFNy production expressed as IFN-y concentration (pg/ml). LN, lymph nodes. Data representative of 3 independent experiments.
# as §1, with “FIG. 6: 15N3K alone induces” for “FIG. 5: 17JK alone induces”, “10 µg/ml 15N3K on days” for “10 µg/ml 17JK on days”, “lines) and 15N3K-treated mice (grey” for “lines) and 17JK-treated mice (grey”, “the graphs (* p<0.05; **** p<0.0001). The %” for “the graphs (** p<0.01; *** p<0.001). The %”, “Tolerization against SAg in spleen.” for “Tolerization against S-Ag in spleen.”
# FIG. 7: Treatment with peptide cocktail ATX975 reduces S-Ag-induced immune cell activation in DR3tg mice more efficiently than treatment with 17JK or 15N3K alone. Mice were injected subcutaneously in the flank with 0.015 nmol, 0.15 nmol and 1.5 nmol of peptide on days -15, -13 and -11 respectively, followed by 3 injections of 15 nmol peptide on days -8, -6 and -4 (dose escalation schedule). For treatment with the cocktail (ATX975) containing 3 peptides, these doses were given per peptide (reaching a total top dose of 45 nmol peptide). On day 0, mice were immunized subcutaneously at the base of the tail with antigen/CFA. Mice were sacrificed 10 days after immunization to measure activation of splenocytes upon SAg restimulation. Data represent mean ± SEM of the IFNy concentration for the control-treated mice (black lines) and peptide-treated mice (grey lines). Two-way ANOVA was used to measure overall treatment effects on T cell activation. Dunnett’s multiple comparisons test was used and significant differences are indicated in the graphs (* p<0.05; ** p<0.01; *** p<0.001; **** p<0.0001 as compared to the control group; ^# p<0.05, ^#### p<0.0001 as compared to the ATX975 group). The % inhibition of IFNy production as compared to the control group is indicated in the graphs. (A) Tolerization against S-Ag […]. IFN-y production expressed as IFN-y concentration (pg/ml). (B) Tolerization against S-Ag in spleen. […]
substance,measurement,value
KKKLTFRRDLYFSRVQVYKKK-NH2 [17JK],reduction of S-Ag-induced cell activation (IFNy) in spleens,80% and 52%
same,reduction of S-Ag-induced cell activation (IFNy) in lymph nodes,78%
same,reduction of S-Ag-induced cell activation (IFNy) in spleen,84%
KKKVIFKKISRDKSVTIYLGKKK-NH2 [15N3K],reduction of S-Ag-induced cell activation (IFNy) in spleens,74%
same,reduction of S-Ag-induced cell activation (IFNy) in lymph nodes,61%
same,reduction of S-Ag-induced cell activation (IFNy) in spleen,72%
